In experiment [1] the test system is M-5076 ovarian sarcoma. Put plainly: In vivo antitumor activity in mice vs. M-5076 ovarian sarcoma.
Experiment [2] has as its system LX-1 human lung carcinoma xenograft. The experiment in a line: In vivo antitumor activity in mice vs. LX-1 human lung carcinoma xenograft.
Experiment [3] has as its system P-388 leukemia cells. The experiment in a line: In vivo antitumor activity in mice vs. P-388 leukemia. Particulars: for T/C vs. P-388 / survivors, P-388: mice.
The test system of experiment [4] is variety of tumor models in mice. The experiment in a line: In vivo activity against several tumor models in mice.
The test system of experiment [5] is L1210 leukemia cells. Put plainly: Inhibition of L1210 leukemia cells in plate assays. In kind it is cell-based. To be noted: Mus musculus. As to the method:
Et's 722 (Compound 6) and 736 (Compound 7)inhibit L1210 leukemia cells to the extent of 90% in plate assays at 2.5 and 5.0 μg/ml, respectively.

Experiment [6] concerns MX-1 human mammary carcinoma xenograft. Put plainly: In vivo antitumor activity in mice vs. MX-1 human mammary carcinoma xenograft.
Experiment [7] deals with DNA. Particulars: Lown et al. 1982; Zmijewski et al. 1985; cited from earlier work.
For experiment [8], the system named is Lewis lung carcinoma. The experiment in a line: In vivo antitumor activity in mice vs. Lewis lung carcinoma.
Experiment [9] relates to B-16 melanoma. The experiment in a line: In vivo antitumor activity in mice vs. B-16 melanoma.
Experiment [10] concerns A-549 human lung adenocarcinoma cell line. The experiment in a line: In vitro activity against A-549 human lung adenocarcinoma cell line. In kind it is cell-based. The procedure:
(§1) Compounds 3 and 5 described herein were tested in vitro against the following cell lines; P-388 murine leukemia cell line; HT-29 human colon cancer cell line; A-549 human lung adenocarcinoma cell line; and CV-1 monkey kidney cell line (non-cancerous); and the IC50 in μg/ml was determined.

Experiment [11] has as its system CV-1 monkey kidney cell line. Put plainly: In vitro activity against CV-1 monkey kidney cell line (non-cancerous). Particulars: CV-1 monkey kidney (non-cancerous). In kind it is cell-based. The procedure:
as §1

Experiment [12] concerns HT-29 human colon cancer cell line. The experiment in a line: In vitro activity against HT-29 human colon cancer cell line. In kind it is cell-based. The procedure:
as §1

Experiment [13] has as its system P-388 murine leukemia cell line. Put plainly: In vitro activity against P-388 murine leukemia cell line. In kind it is cell-based. The procedure: as §1
The mark [14] stands for this setting: comparison Compound 1 vs. Compound 6.

≈ marks a conversion by molar mass, not a printed value.

A word on the inhibition: it is the relative decrease from the control value, in per cent. By IC50 is commonly meant the point on the concentration scale where inhibition reaches its midpoint.

On to `COc1c(C)cc2c(c1O)C1NC(C2)[C@H](O)N2C3COC(=O)[C@]4(CSC(c5c(OC(C)=O)c(C)c6c(c53)OCO6)C12)NCCc1c4[nH]c2ccccc12` (stereo partly shown) [Compound 6], for which, in experiment [1] (mice), the “activity vs. M-5076 ovarian sarcoma” value is “slightly active”. The “T/C vs. LX-1” value in experiment [2] (50 μg/kg, mice) is reported as 200. Moreover, in [3] (25 μg/kg day), the “T/C vs. P-388” value was greater than 265 and the “survivors, P-388” value is on record as 2/6. In experiment [3] (comparison Compound 6 vs. Compound 1), the “activity vs. P-388 compared with Compound 1” value is on record as “more effective than Compound 1”. In addition, the “in vivo activity in mice” value in experiment [4] is listed as “highly active in vivo in mice”. In [5] (at 2.5 μg/ml), the inhibition at 2.5 µg/mL came to 90%. For the same compound, the “activity vs. MX-1 human mammary carcinoma xenograft” value in [6] (mice) was “slightly active”.
Regarding `COC1=C(C)C(=O)C2=C(C1=O)C(CO)N1C(O)C3CC4C(C1C2N1CCOC41)N3C` (stereo not shown) [naphthyridinomycin], the “reactions with DNA” value in experiment [7] is “reversible reactions”.
As for `COc1cc2c(cc1O)CCN[C@]21CSC2c3c(OC(C)=O)c(C)c4c(c3C(COC1=O)N1C2C2NC(Cc3cc(C)c(OC)c(O)c32)[C@@H]1O)OCO4` (stereo partly shown) [Compound 1], in experiment [1] (12.5 μg/kg), the “T/C vs. M-5076” value came to 204 and the “survivors, M-5076” value was 5/10. The “activity vs. M-5076 compared with Compound 6” value in [1] (setting [14]) is “more active”. Further, the “T/C vs. LX-1” value in [2] (25 μg/kg) turned out to be 0.00. In experiment [2] (setting [14]), the “activity vs. LX-1 compared with Compound 6” value was “more active”. Further, in experiment [3] (12.5 μg/kg day), the “T/C vs. P-388” value was determined as 190 and the “survivors, P-388” value was 1/6. The “T/C vs. Lewis lung” value in experiment [8] (25 μg/kg) is reported as 0.00. Further, the “activity vs. Lewis lung compared with Compound 6” value in experiment [8] (setting [14]) is reported as “more active”. In addition, the “in vivo activity in mice” value in [4] is given as “exceedingly potent activity in vivo”. For the same compound, the “T/C vs. B-16” value in [9] (12.5 μg/kg) was found to be 253. Further, the “activity vs. B-16 compared with Compound 6” value in experiment [9] (setting [14]) is on record as “more active”. In [6] (37.5 μg/kg), the “T/C vs. MX-1” value is listed as 0.05. Besides, the “activity vs. MX-1 compared with Compound 6” value in experiment [6] (setting [14]) is listed as “more active”.
Regarding `COc1cc2c(cc1O)CCN[C@]21CSC2c3c(OC(C)=O)c(C)c4c(c3C(COC1=O)N1C2C2c3c(cc(C)c(OC)c3O)CC([C@@H]1O)N2C)OCO4` (stereo partly shown) [Compound 2], the “in vivo activity in mice” value in [4] was “exceedingly potent activity in vivo”.
As to `COc1cc2c(cc1O)CCN[C@]21CSC2c3c(OC(C)=O)c(C)c4c(c3C(COC1=O)N1C2C2c3c(cc(C)c(OC)c3O)CC([C@@H]1O)N2C=O)OCO4` (stereo partly shown) [Compound 3, N^12 -Formyl Et 729], the IC50 in [10] (A549) came out at 2 ng/mL (≈ 2.58 nM); in experiment [11] (Primates) it was 5 ng/mL (≈ 6.44 nM); in [12] it was 2 ng/mL (≈ 2.58 nM); in experiment [13] (Mus musculus, P388), 0.5 ng/mL (≈ 0.644 nM).
In the case of `COc1c(C)cc2c(c1O)C1C3C4SC[C@]5(NCCc6c5[nH]c5ccccc65)C(=O)OCC(c5c6c(c(C)c(OC(C)=O)c54)OCO6)N3[C@@H](O)C(C2)N1C` (stereo partly shown) [Compound 7], at 5 µg/mL the inhibition in experiment [5] (at 5.0 μg/ml) was 90%.
Take Et 743 N^12 -Oxide [Compound 5]: in [10], the “IC50 against A-549” value stood at 2.5 ng/mL. Further, in [11], the “IC50 against CV-1” value turned out to be 2.5 ng/mL. Moreover, the “IC50 against HT-29” value in experiment [12] stood at 2.5 ng/mL. Moreover, the “IC50 against P-388” value in experiment [13] turned out to be 1 ng/mL.
As to `COC1=C(C)C(=O)C2=C(C1=O)C1C3CC4=C(C(=O)C(OC)=C(C)C4=O)C(CNC(=O)C(C)=O)N3C(C#N)C(C2)N1C` (stereo not shown) [saframycin A], in [7], the “reactions with DNA” value is “reversible reactions”.

The record behind these values is patent US5654426A, “Ecteinascidins” (priority 1995, dated 1997).
